Data reported in patent US20260325685A1, “Radiopharmaceutical Compositions Targeting Carbonic Anhydrase IX and Uses Thereof” (RayzeBio, Inc., priority 2023, published 2026).
pKd: −log10 of the molar value. Read-outs that look alike come from different tables or passages of the source.

Legend:
[1] = target: T1, human CA-IX (Homo sapiens, UniProt Q16790); assay: Surface Plasmon Resonance (SPR) binding kinetics to recombinant human CA-IX (Biacore 8K, single-cycle kinetics, 1:1 binding model)
T1 construct: purchased Acro CA9-H82E3
Procedure: (§1) G1. Surface Plasmon Resonance Assay Conditions for hCA-IX and hCA-XII
(§2) Surface Plasmon Resonance (SPR) experiments were conducted on a Biacore 8K instrument (Cytiva, Marlborough, MA) to determine the binding kinetics of the compound to recombinant human CA-IX (Acro, CA9-H82E3) and CA-XII (Creative BioMart, CA12-261H) proteins. The ligands were diluted to 10 μg/mL in PBS-P+ buffer (20 mM phosphate buffer, pH 7.4, with 2.7 mM KCl, 137 mM NaCl, and 0.05% Tween 20) and captured on Series S Streptavidin Sensor Chips (Cytiva, 29699621) to 1200-1800 response units (RU) using a flow rate of 5 μL/min and injection times of 180 seconds for human CA-IX and 75 seconds for human CA-XII. Analyte binding was evaluated using a single-cycle kinetics method over 9 analyte concentrations (100-0.39 nM) in PBS-P+ buffer with 1% DMSO using a 50 μL/min. flow rate, 120 second association time, and 1200 second dissociation time. The flow cell temperature was set to 25° C. Analyte binding curves were fit to a 1:1 binding kinetic model in Biacore Insight Evaluation software (version 4.0.8.20368) following reference flow cell subtraction and DMSO correction to derive the association and dissociation binding constants.

[2] = target: T2, human CA-XII (Homo sapiens, UniProt O43570); assay: Surface Plasmon Resonance (SPR) binding kinetics to recombinant human CA-XII (Biacore 8K, single-cycle kinetics, 1:1 binding model)
T2 construct: purchased Creative BioMart CA12-261H
Procedure: as §1, §2

[3] = Chelated Metal: Lu-175; SPR, 25° C., pH 7.4; read-out: CAIX KD
[4] = Chelated Metal: Lu-175, 25° C., pH 7.4, read-out: CAXII KD
[5] = read-out: CAIX KD; Chelated Metal: Lu-175; SPR, 25° C., pH 7.4
[6] = read-out: CAXII KD, Chelated Metal: Lu-175, 25° C., pH 7.4
[7] = Chelated Metal: None; SPR, 25° C., pH 7.4; read-out: CAIX KD
[8] = KD ratio CAXII/CAIX; Chelated Metal: None
[9] = Chelated Metal: None, 25° C., pH 7.4, read-out: CAXII KD

T2 sequence (O43570 25-354): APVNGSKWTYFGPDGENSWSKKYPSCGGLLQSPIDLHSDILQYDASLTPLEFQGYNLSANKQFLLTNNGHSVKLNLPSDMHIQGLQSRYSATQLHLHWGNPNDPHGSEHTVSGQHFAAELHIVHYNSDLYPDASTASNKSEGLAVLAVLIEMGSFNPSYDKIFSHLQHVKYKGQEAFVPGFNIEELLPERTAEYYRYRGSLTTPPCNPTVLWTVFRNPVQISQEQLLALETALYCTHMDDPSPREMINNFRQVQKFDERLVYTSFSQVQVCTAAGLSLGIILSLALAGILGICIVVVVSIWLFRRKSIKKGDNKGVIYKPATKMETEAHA

Row | Compound | pKd [1, 3] | pKd [2, 4] | also measured
1 | NS(=O)(=O)c1nnc(NC(=O)C23CC(c4cn(CCCC[C@@H](C(=O)NCCOCCOCCNC(=O)CN5CCN(CC(=O)O)CCN(CC(=O)O)CCN(CC(=O)O)CC5)n5cc(C[C@H](NC(=O)C[C@H](NC(=O)c6n[nH]c7ccccc67)C(=O)O)C(=O)O)nn5)nn4)(C2)C3)s1.[Lu+3] [Compound 101.1] | > 9.00 | 8.00 to 8.60 | 
2 | CC(CCC(=O)N[C@@H](CC(=O)N[C@@H](Cc1cn([C@@H](CCCCn2cc(C34CC(C(=O)Nc5nnc(S(N)(=O)=O)s5)(C3)C4)nn2)C(=O)NCCOCCOCCNC(=O)CN2CCN(CC(=O)O)CCN(CC(=O)O)CCN(CC(=O)O)CC2)nn1)C(=O)O)C(=O)O)(c1ccc(O)cc1)c1ccc(O)cc1.[Lu+3] [Compound 101.2] | > 9.00 | 8.00 to 8.60 | 
3 | CC(CCC(=O)N[C@@H](CC(=O)N[C@@H](Cc1cn([C@@H](CCCCn2cc(C34CCC(C(=O)Nc5nnc(S(N)(=O)=O)s5)(CC3)CC4)nn2)C(=O)NCCOCCOCCNC(=O)CN2CCN(CC(=O)O)CCN(CC(=O)O)CCN(CC(=O)O)CC2)nn1)C(=O)O)C(=O)O)(c1ccc(O)cc1)c1ccc(O)cc1.[Lu+3] [Compound 101] |  |  | pKd [1, 5]: > 9.00; pKd [2, 6]: > 9.00
4 | CC(CCCC(=O)N1CCC(C(=O)O)(C(=O)NCC(=O)N[C@@H](CCCCn2cc(CCCC(=O)Nc3nnc(S(N)(=O)=O)s3)nn2)C(=O)NCCOCCOCCNC(=O)CN2CCN(CC(=O)O)CCN(CC(=O)O)CCN(CC(=O)O)CC2)CC1)(c1ccc(O)cc1)c1ccc(O)cc1.[Lu+3] [Compound 102.1] | > 9.00 | < 8.00 | 
5 | CC(CC(=O)N1CCC(C(N)=O)(C(=O)NCC(=O)N[C@@H](CCCCn2cc(CCCC(=O)Nc3nnc(S(N)(=O)=O)s3)nn2)C(=O)NCCOCCOCCNC(=O)CN2CCN(CC(=O)O)CCN(CC(=O)O)CCN(CC(=O)O)CC2)CC1)(c1ccc(O)cc1)c1ccc(O)cc1.[Lu+3] [Compound 102.2] | 8.00 to 8.60 | < 8.00 | 
6 | CC(CCCC(=O)N1CCC(C(N)=O)(C(=O)NCC(=O)N[C@@H](CCCCn2cc(CCCC(=O)Nc3nnc(S(N)(=O)=O)s3)nn2)C(=O)NCCOCCOCCNC(=O)CN2CCN(CC(=O)O)CCN(CC(=O)O)CCN(CC(=O)O)CC2)CC1)(c1ccc(O)cc1)c1ccc(O)cc1 [Compound 102.3] |  |  | pKd [1, 7]: > 9.00; Ratio (CAXII/CAIX) [1, 8]: *** (10 < *** ≤ 50); pKd [2, 9]: < 8.00
7 | CC(CC(=O)N1CCC(C(=O)O)(C(=O)NCC(=O)N[C@@H](CCCCn2cc(CCCC(=O)Nc3nnc(S(N)(=O)=O)s3)nn2)C(=O)NCCOCCOCCNC(=O)CN2CCN(CC(=O)O)CCN(CC(=O)O)CCN(CC(=O)O)CC2)CC1)(c1ccc(O)cc1)c1ccc(O)cc1.[Lu+3] [Compound 102.4] | > 9.00 | 8.00 to 8.60 | 
8 | CC(CCCC(=O)N1CCC(C(=O)O)(C(=O)NCC(=O)N[C@@H](CCCCn2cc(C34CCC(C(=O)Nc5nnc(S(N)(=O)=O)s5)(CC3)CC4)nn2)C(=O)NCCOCCOCCNC(=O)CN2CCN(CC(=O)O)CCN(CC(=O)O)CCN(CC(=O)O)CC2)CC1)(c1ccc(O)cc1)c1ccc(O)cc1.[Lu+3] [Compound 102.5] | > 9.00 | 8.00 to 8.60 | 
9 | CC(CCCC(=O)N1CCC(C(=O)O)(C(=O)NCC(=O)N[C@@H](CCCCn2cc(C34CC(C(=O)Nc5nnc(S(N)(=O)=O)s5)(C3)C4)nn2)C(=O)NCCOCCOCCNC(=O)CN2CCN(CC(=O)O)CCN(CC(=O)O)CCN(CC(=O)O)CC2)CC1)(c1ccc(O)cc1)c1ccc(O)cc1.[Lu+3] [Compound 102.6] | > 9.00 | < 8.00 | 
10 | CC(CCCOc1cc(NC(CC(=O)N[C@@H](CCCCn2cc(CCCC(=O)Nc3nnc(S(N)(=O)=O)s3)nn2)C(=O)NCCOCCOCCNC(=O)CN2CCN(CC(=O)O)CCN(CC(=O)O)CCN(CC(=O)O)CC2)C(=O)O)cc(C(=O)O)c1)(c1ccc(O)cc1)c1ccc(O)cc1.[Lu+3] (stereo partly shown) [Compound 102.7] | > 9.00 | 8.00 to 8.60 | 
11 | NS(=O)(=O)c1nnc(NC(=O)CCCc2nnn(CCCC[C@H](NC(=O)C[C@H](Nc3cc(NC(=O)c4n[nH]c5ccc(O)cc45)cc(C(=O)O)c3)C(=O)O)C(=O)NCCOCCOCCNC(=O)CN3CCN(CC(=O)O)CCN(CC(=O)O)CCN(CC(=O)O)CC3)c2C(=O)O)s1.[Lu+3] [Compound 102.8] | > 9.00 | 8.60 to 9.00 | 
12 | CC(CCC(=O)N1CCC(C(=O)O)(C(=O)NCC(=O)N[C@@H](CCCCn2cc(CCCC(=O)Nc3nnc(S(N)(=O)=O)s3)nn2)C(=O)NCCOCCOCCNC(=O)CN2CCN(CC(=O)O)CCN(CC(=O)O)CCN(CC(=O)O)CC2)CC1)(c1ccc(O)cc1)c1ccc(O)cc1.[Lu+3] [Compound 102] |  |  | pKd [1, 5]: 8.60 to 9.00; pKd [2, 6]: < 8.00
13 | CC(CCC(=O)N[C@@H](CC(=O)N[C@@H](CCC(=O)NC1(C(=O)NCCOCCOCCNC(=O)CN2CCN(CC(=O)O)CCN(CC(=O)O)CCN(CC(=O)O)CC2)CN(C(=O)Cn2cc(CCCC(=O)Nc3nnc(S(N)(=O)=O)s3)nn2)C1)C(=O)O)C(=O)O)(c1ccc(O)cc1)c1ccc(O)cc1.[Lu+3] [Compound 103.1] | 8.60 to 9.00 | 8.00 to 8.60 | 
14 | CC(CCC(=O)N[C@@H](CC(=O)N[C@@H](CCC(=O)NC1(C(=O)NCCOCCOCCNC(=O)CN2CCN(CC(=O)O)CCN(CC(=O)O)CCN(CC(=O)O)CC2)CCN(C(=O)Cn2cc(CCCC(=O)Nc3nnc(S(N)(=O)=O)s3)nn2)CC1)C(=O)O)C(=O)O)(c1ccc(O)cc1)c1ccc(O)cc1.[Lu+3] [Compound 103.2] | 8.60 to 9.00 | 8.00 to 8.60 | 
15 | CC(CCC(=O)N[C@@H](CC(=O)N[C@@H](CC(=O)NC1(C(=O)NCCOCCOCCNC(=O)CN2CCN(CC(=O)O)CCN(CC(=O)O)CCN(CC(=O)O)CC2)CN(C(=O)Cn2cc(CCC(=O)Nc3nnc(S(N)(=O)=O)s3)nn2)C1)C(=O)O)C(=O)O)(c1ccc(O)cc1)c1ccc(O)cc1.[Lu+3] [Compound 103.3] | 8.00 to 8.60 | < 8.00 | 
16 | CC(CCC(=O)N[C@@H](CC(=O)N[C@@H](CC(=O)NC1(C(=O)NCCOCCOCCNC(=O)CN2CCN(CC(=O)O)CCN(CC(=O)O)CCN(CC(=O)O)CC2)CN(C(=O)Cn2cc(CCCCC(=O)Nc3nnc(S(N)(=O)=O)s3)nn2)C1)C(=O)O)C(=O)O)(c1ccc(O)cc1)c1ccc(O)cc1.[Lu+3] [Compound 103.4] | 8.00 to 8.60 | 8.00 to 8.60 | 
17 | CC(CCC(=O)N[C@@H](CC(=O)N[C@@H](CC(=O)NC1(C(=O)NCCOCCOCCNC(=O)CN2CCN(CC(=O)O)CCN(CC(=O)O)CCN(CC(=O)O)CC2)CN(C(=O)Cn2cc(CCCC(=O)Nc3nnc(S(N)(=O)=O)s3)nn2)C1)C(=O)O)C(=O)O)(c1ccc(O)cc1)c1ccc(O)cc1.[Lu+3] [Compound 103] |  |  | pKd [1, 5]: 8.60 to 9.00; pKd [2, 6]: 8.00 to 8.60
18 | CC(CCC(=O)N[C@@H](CC(=O)N[C@@H](CC(=O)N1CCN(C(=O)CN2CCN(CC(=O)O)CCN(CC(=O)O)CCN(CC(=O)O)CC2)C[C@H]1CCCCn1cc(C23CCC(C(=O)Nc4nnc(S(N)(=O)=O)s4)(CC2)C3)nn1)C(=O)O)C(=O)O)(c1ccc(O)cc1)c1ccc(O)cc1 [Compound 104.1] |  |  | pKd [1, 7]: > 9.00; Ratio (CAXII/CAIX) [1, 8]: * (1 < * < 5); pKd [2, 9]: > 9.00
19 | CC(CCC(=O)N[C@@H](CC(=O)N[C@@H](CC(=O)N1CCN(C(=O)CN2CCN(CC(=O)O)CCN(CC(=O)O)CCN(CC(=O)O)CC2)C[C@@H]1CCCCn1cc(C23CCC(C(=O)Nc4nnc(S(N)(=O)=O)s4)(CC2)C3)nn1)C(=O)O)C(=O)O)(c1ccc(O)cc1)c1ccc(O)cc1 [Compound 104.2] |  |  | pKd [1, 7]: > 9.00; Ratio (CAXII/CAIX) [1, 8]: * (1 < * < 5); pKd [2, 9]: > 9.00
20 | CC(CCC(=O)N[C@@H](CC(=O)N[C@@H](CC(=O)N1CCN(C(=O)CN2CCN(CC(=O)O)CCN(CC(=O)O)CCN(CC(=O)O)CC2)CC1CCCCn1cc(CCCC(=O)Nc2nnc(S(N)(=O)=O)s2)nn1)C(=O)O)C(=O)O)(c1ccc(O)cc1)c1ccc(O)cc1.[Lu+3] (stereo partly shown) [Compound 104] |  |  | pKd [1, 5]: 8.60 to 9.00; pKd [2, 6]: 8.00 to 8.60
